These results are taken from publication PMC7456892 (Frontiers in Plant Science, 2020).

Entries after “also recorded” stand apart in the source; their conditions may differ. Where no end group is shown, it is not given here.

Series [1] deals with pepsin. Briefly: SGF (200 mg NaCl, 10 units pepsin/µg test protein, pH 1.2). To be noted: 37°C, up to 60 min.
Series [2] deals with pepsin (Sus scrofa, UniProt P00791). Briefly: Simulated Gastric Fluid (SGF) pepsin digestion assay. Type of series: in vitro ADME. To be noted: pH 1.2. As to the method: Protein samples were analyzed for degradation by SDS PAGE followed by staining with RAPIDStain (Calbiochem) for 1 h after intense washing with ultrapure water. Digestion products from the SGF assays were analyzed by Matrix-assisted laser desorption/ionization time of flight (MALDI TOF) mass spectrometry. Samples were pre-incubated with 0.5 μl of 40 mM DTT for 20 min on the ground steel plate to reduce disulfide bonds. The samples were subsequently mixed with 2,5-dihydroxybenzoic acid (DHB) and the mass to charge ratio was measured for each sample using a Bruker Daltonics Ultraflex III MALDI-TOF/TOF Mass Spectrometer.

Series [3] has as its system F. graminearum. Type of series: cell-based, Fusarium graminearum isolate 73B1A. To be noted: growth assay, 25°C, dark, 24 h, OD 595 nm.
For series [4], the system named is C. graminicola. In kind it is cell-based, Colletotrichum graminicola isolate Carroll-1A-99. The conditions noted are these: growth assay, 25°C, dark, 40 h, OD 595 nm.
The test system of series [5] is trypsin (pancreatin).
Experimental: Aliquots (320 µl) of each of SIF (60 mM KH2PO4, pH 7.5, 12 mg/ml pancreatin), SIF minus pancreatin and ultrapure water were added to individual glass vials with stir bars on a submersible stir plate (2mag MIX drive, Sigma Aldrich) in a 37°C water bath for 2 min before the addition of 40 µl of test protein (5 mg/ml) to each vial. Azoalbumin (A-2382, Sigma Aldrich) at a final concentration of 10 mg/ml in ultrapure water was used as the positive control for protease digestion. Protein degradation was assessed by SDS PAGE as described above.
The subject of series [6] is pancreatin. To be noted: 37°C, up to 60 min.

pepsin (Sus scrofa, UniProt P00791), sequence (P00791 60-385): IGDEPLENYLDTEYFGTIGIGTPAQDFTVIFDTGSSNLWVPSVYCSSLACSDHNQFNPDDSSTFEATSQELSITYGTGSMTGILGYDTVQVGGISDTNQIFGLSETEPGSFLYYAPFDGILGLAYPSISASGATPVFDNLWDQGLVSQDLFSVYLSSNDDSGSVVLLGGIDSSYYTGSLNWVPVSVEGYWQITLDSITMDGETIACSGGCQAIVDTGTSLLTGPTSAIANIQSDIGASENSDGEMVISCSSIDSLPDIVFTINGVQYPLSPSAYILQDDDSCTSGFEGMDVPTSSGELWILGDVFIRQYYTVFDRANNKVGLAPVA

As for “KDCLTRRHGFQGRCLFDRQCAHVCRSDGFIGGQCRGPLRKCFCSRPC”, the not cleaved entry in series [1] is given as “stable in the SGF assay for more than 60 min”.
“NaD1-C3S-C47S: NaD1 variant lacking the Cys3-Cys47 (fourth) disulfide bond (RESKTESNTFPGICITKPPCRKACISEKFTDGHCSKILRRCLCTKPS; not fully specified; ends and bridges not checked; UniProt Q8GTM0 26-72, looked up, variant C3S C47S)”: in series [2], the “Digestion in SGF, result in words” value is listed as “partially digested”. For the same substance, the “Antifungal activity against F. graminearum compared with wild type defensin, in words” value in series [3] is “as active as unmodified NaD1”. Besides, the “Antifungal activity against C. graminicola compared with wild type defensin, in words” value in series [4] was “as active as unmodified NaD1”. For the same substance, the “Size of peptides after digestion in SIF” value in series [5] is recorded as “less than 2300 Da”.
For the substance “NaD1: class II plant defensin from the ornamental tobacco Nicotiana alata, purified from flowers (RECKTESNTFPGICITKPPCRKACISEKFTDGHCSKILRRCLCTKPC; ends and bridges not checked; cysteine pairing not given here; UniProt Q8GTM0 26-72, looked up)”, the “Mass of fragments Da at 60 min” value in series [2] is listed as 5296 Da.
Regarding “RECKTESHRFKGPCITKPPCRKACISEFFTDGHCSKILRRCLCTKPC”, the cleaved bond result in series [1] is “F28-F29, 10 min; also recorded: T16-K17, 10 min”.
As for “RECKTESHRFKGPCITKPPCRKACISEKFTDGHCSKILRRCLCTKPC”, the not cleaved result in series [1] is recorded as “not degraded in SGF (60 min)”.
For “RECKTESNTFPGICITKPPCRKACISEKFTDGHCSKILRRCLCTKPC”, the not cleaved entry in series [6] is on record as “not digested by SIF (60 min)”; in series [1], “stable in the SGF assay for more than 60 min; also recorded: not cleaved”.
For “RECKTESRAFALECITKPPCRKACISEKFTDGHCSKILRRCLCTKPC”, the cleaved bond result in series [1] is given as “A9-F10, 60 min”.
On the same count and under the same terms, next, “RESKTESRAFALECITKPPCRKACISEFFTDGHCSKILRRCLCTKPS”: “A9-F10, within 1 minute; also recorded: F28-F29, within 1 minute”.
